Key:
filaggrin gene [1] = assay: Filaggrin gene expression promotion by 1PP, zanthoxylum extract and their combination (QPCR, cultured keratinocytes); assay type: cell-based, human; conditions: agent at 0.1% in medium (combination: 0.1% each); keratinocytes collected after 18 hours; versus no-agent control; FIG. 4
Protocol: Commercially available normal adult skin-derived keratinocytes (Cellntec AG) were disseminated in a culture plate to a concentration of 3×10^3 cells/cm^2 followed by culturing in epithelial cell medium (CnT-BM.1, Cellntec AG) at 37° in a 5% CO2 atmosphere. […] The absence of addition of pharmaceutical agent was used as a control.
RNA was extracted from the collected cells using a commercially available RNA extraction-cDNA synthesis kit (FastLane Cell cDNA Kit, Qiagen N.V.) to prepare cDNA. Filaggrin expression levels were measured by quantitative PCR (QPCR) using this cDNA. A commercially available QPCR reagent kit (Brilliant III Ultra-Fast SYBR Green QPCR Kit, Agilent Technologies Inc.) and QPCR measurement system (MX-3000P Real-time Quantitative PCR System, Agilent Technologies Inc.) were used for QPCR. The expression level of a housekeeping gene in the form of RPLP0 gene was quantified for use as an internal standard, and the relative expression level with respect to PLP0 was calculated and used as the expression level of filaggrin gene. The primer sequences shown in Table 1 were used for the sequences of the PCR primers.

filaggrin gene [2] = assay: Screening pharmaceutical agents that promote filaggrin gene expression (QPCR, cultured keratinocytes); assay type: cell-based, human; conditions: candidate agent at 1% in medium; normal adult skin-derived keratinocytes; 18 hours after addition; relative to RPLP0; FIG. 3
Protocol: Commercially available normal adult skin-derived keratinocytes (Cellntec AG) were disseminated in a culture plate to a concentration of 3×10^3 cells/cm^2 followed by culturing in epithelial cell medium (CnT-BM.1, Cellntec AG) at 37° in a 5% CO2 atmosphere. Three days later, the medium was replaced with medium containing each of the candidate pharmaceutical agents at a concentration of 1% followed by continuing culturing at 37° C. and 5% CO2 and collecting the cells after 2 hours and after 18 hours. The candidate pharmaceutical agents added to the medium consisted of zanthoxylum extract (Maruzen Pharmaceuticals Co., Ltd.), geranium oil (Koei Kogyo Co., Ltd.), cypress oil (Bioland Co., Ltd.), rose oil (Bioland Co., Ltd.), galvanum oil (Bioland Co., Ltd.), pepper oil (Bioland Co., Ltd.), basil oil (Bioland Co., Ltd.), methyl-o-toluate (Aldrich Inc.), methyl anthranilate (Tokyo Chemical Industry Co., Ltd.), dimethyl anthranilate (Tokyo Chemical Industry Co., Ltd.), clove bud caryophyllata oil (Bioland Co., Ltd.) and arnica oil (Koei Kogyo Co., Ltd.). The absence of addition of pharmaceutical agent was used as a negative control, and cortisol (concentration in medium: 50 ng/mL) was used as a positive control.
RNA was extracted from the collected cells using a commercially available RNA extraction-cDNA synthesis kit (FastLane Cell cDNA Kit, Qiagen N.V.) to prepare cDNA. Filaggrin expression levels were measured by quantitative PCR (QPCR) using this cDNA. Expression levels of clock genes PER3 and BMAL1 were measured simultaneously and compared with the expression rhythm of filaggrin gene. A commercially available QPCR reagent kit (Brilliant III Ultra-Fast SYBR Green QPCR Kit, Agilent Technologies Inc.) and QPCR measurement system (MX-3000P Real-time Quantitative PCR System, Agilent Technologies Inc.) were used for QPCR. The expression level of a housekeeping gene in the form of RPLP0 gene was quantified for use as an internal standard, and the relative expression level with respect to PLP0 was calculated and used as the expression level of filaggrin gene. […]

| Compound | effect of promoting filaggrin gene expression (filaggrin gene [1]) | expression of filaggrin gene after 18 hours in comparison with the negative control (filaggrin gene [2]) |
| --- | --- | --- |
| O=C(O)CCN1CCCCC1 [1PP, 3-(1′-piperidine)propionic acid] | effect of promoting filaggrin gene expression that was comparable to that of zanthoxylum extract |  |
| CNc1ccccc1C(=O)OC [dimethyl anthranilate, 2-methyl aminomethylbenzoate] |  | promote expression of filaggrin gene |
| COC(=O)c1ccccc1N [methyl anthranilate, methyl 2-aminobenzoate] |  | promote expression of filaggrin gene |
| COC(=O)c1ccccc1C [methyl-o-toluate, methyl 2-methylbenzoate] |  | promote expression of filaggrin gene |

From US9827187B2, “Filaggrin gene expression promoter” (Shiseido Company, Ltd., priority 2012, dated 2017)
